Experimental data: article PMC7560342, “In Vitro and In Vivo Evaluation of the Toxic Effects of Dodecylguanidine Hydrochloride” (Toxics, 2020)
Converted amounts (≈) assume the structure as drawn.

What was measured:
A549 cells = assay: cells; type: cell-based, Human; settings: 24 h exposure, WST assay; for IC50: Homo sapiens, read-out: IC50 (half inhibitory concentration by cell viability assay)
Description: Human adenocarcinomic alveolar epithelial (A549) cells were obtained from the Korea Cell Line Bank (Seoul, Korea). Cells were grown in RPMI 1640 medium (Thermo Fisher Scientific, Waltham, MA, USA), containing 10% heat-inactivated fetal bovine serum (Thermo Fisher Scientific, Waltham, MA, USA) and 1% penicillin-streptomycin (Thermo Fisher Scientific, Waltham, MA, USA) under standard cell culture conditions (37 °C, 5% CO2, and 90% humidity).
A549 cells (1 × 10^4 cells) were incubated in 96-well plates overnight, and various concentrations (1, 10, 100, 1000, and 5000 μg/mL) of the eight selected chemicals were added to the cell culture medium. After 24 h of incubation, cell morphology was observed by optical microscopy, and cell viability was evaluated using EZ-Cytox kit (DoGenBio, Seoul, Korea) by quantifying purple formazan crystals. The membrane integrity was examined using an EZ-lactate dehydrogenase (LDH) kit (DoGenBio, Seoul, Korea) to measure the LDH level released from the cytosol into the culture medium. Absorbance was measured using a microplate reader (Tecan, Salzburg, Austria) at a wavelength of 450 nm.

rat [1] = test system: rat; set-up: method as in earlier work; settings: 1 h; cited from earlier work
rat [2] = test system: rat; set-up: method as in earlier work; settings: cited from earlier work
rabbit = test system: rabbit; set-up: method as in earlier work; settings: cited from earlier work

N#CNC(=N)N [CG, Cyanoguanidine]
IC50 (A549 cells): > 5000 µg/mL

N=C(N)N.N=C(N)N.O=C(O)O [GC, Guanidine carbonate]
IC50 (half inhibitory concentration by cell viability assay) (A549 cells): 1822 µg/mL

Cl.N=C(N)N [GH, Guanidine monohydrochloride]
IC50 (half inhibitory concentration by cell viability assay) (A549 cells): 2373 µg/mL

N=C(N)N.O=[N+]([O-])O [GN, Guanidine mononitrate]
IC50 (half inhibitory concentration by cell viability assay) (A549 cells): 3417 µg/mL

N=C(N)N.NS(=O)(=O)O [GS, Guanidine sulfamate]
IC50 (half inhibitory concentration by cell viability assay) (A549 cells): 2722 µg/mL

CN(C)C(=N)N(C)C [TMG, 1,1,3,3-Tetramethylguanidine]
IC50 (A549 cells): 1090 µg/mL (≈ 9.47 mM)

CCCCCCCCCCCCNC(=N)N [dodine, dodecylguanidine acetate]
Inhalation toxicity LC50 (rat [1]): 1.05 µg/mL | Acute oral toxicity LD50 (rat [2]): 1931 mg/kg | Dermal toxicity LD50 (rabbit): > 2000 mg/kg
